Data: patent US12291502B2, “Topoisomerase II-alpha inhibitors and methods of treating cancer using the same” (The Regents of the University of Colorado, priority 2019, dated 2025)
Entries after “also recorded” stand apart in the source; their conditions may differ.

How the values were obtained:
[1] = Water solubility (stated); assay type: physicochemical
[2] = LCMS quantitation of compound in harvested tumors; assay type: in vivo, athymic nude mouse; details: i.p. 50 mg/kg, 5× per week over 28 days
Description: Mass spectrometry analysis and Sample preparation. Tumor tissue was isolated, flash frozen in liquid nitrogen, and stored at −80° C. until analysis. Prior to LC-MS analysis, samples were milled in liquid nitrogen and weighed. Tissue was then placed in tubes containing ˜50-75 μL of glass beads (NextAdvance SKU GB10), resuspended to 15 mg/ml in methanol:acetonitrile:water (5:3:2, v:v:v) and processed using a Bullet Blender® (Next Advance, Troy, NY, USA) for 5 minutes at level 4 at 4° C. Suspensions were then vortexed continuously for 30 min at 4° C. Insoluble material was removed by centrifugation at 10,000 g for 10 min at 4° C. and supernatants were isolated for metabolomics analysis by UHPLC-MS. Standard curves were prepared by serial dilution of the purified AA-29-141 compound into a pool of vehicle-treated tumor extract.
UHPLC-MS analysis for quantification of 42 in tumor tissue. Analyses were performed as previously published. Briefly, the analytical platform employs a Vanquish UHPLC system (Thermo Fisher Scientific, San Jose, CA, USA) coupled online to a Q Exactive mass spectrometer (Thermo Fisher Scientific, San Jose, CA, USA). […]

SW620 cells = test: Clonogenic assay (24 h pretreatment of cells); assay type: cell-based; details: SW620 cells pretreated 24 hours, colonies over 7 days vs DMSO
Description: Clonogenic assay. SW620 cells were plated to allow for 70% confluency within 24 hours. Analogs 3, 7, and vehicle (DMSO) were then added to cells for 24 hours as pretreatment. A total of 1000 viable cells per well were plated into a six-well plate and medium was changed 2× per week. […] The fixed colonies were stained with 0.5% (w/v) crystal violet in 25% (v/v) methanol solution for 2 hours at room temperature. The stain was rinsed off with water and the plate was air dried at room temperature. Digital pictures were taken, and the images were saved in greyscale (8-bit). Images were adjusted for threshold with imaged software (Bethesda, MD, USA), the area of analysis was circled, and particles were analyzed by size (100-2000) and circularity (0.5-1).
After characterizing 3 and 7 as TOP2A ATP-competitive inhibitors, these compounds were next tested for their ability to inhibit TOP2A-dependent TCF-transcription using the well characterized TOPflash (TOP) luminescent reporter, which was used to generate a stably transduced SW620-TOP reporter cells as described previously (Zhou, et al., Oncogene 2016, 35:4990-9). These cells were used to generate single 3D tumor organoids (700 μm in diameter) uniformly arrayed in 96-well plates, which mimic aspects of tumor function observed in vivo. […]

Structure (SMILES) | water solubility, in words [1] | quantity of compound in tumors (LCMS/HRMS) [2] | clonogenic colony formation, in words (SW620 cells)
O=C(CCN1CCOCC1)Nc1ccc2c(-c3cc(F)ccc3O)ccnc2c1O [Analog 42] | water soluble; also recorded: significantly improved water solubility | significant HRMS quantity | –
CC(=O)Nc1ccc2c(-c3cc(F)ccc3O)ccnc2c1O [Analog 7] | – | – | sufficient to inhibit colony formation; also recorded: significantly inhibit clonogenic colony formation
